Here are results for one compound from PubChem BioAssay AID624061 (Southern Research Specialized Biocontainment Screening …, 2012).

The subject of this assay is E. coli K5, bacterial growth. Briefly: K5 capsule formation inhibitors tested for E. coli K5 growth effect in follow-up (AID 624061). Particulars: stronger effect = lower value.

SMILES strings stand for the structures.

On to `CCOc1ccc(-c2cc(NC(=O)c3c(F)cccc3F)c(C(=O)O)s2)cc1`, for which the bacterial growth (at 100 µM) was 109% and the bacterial growth (growth, at 50 µM) was found to be 106%.
